Test results taken from PubChem BioAssay (NCI).
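Five compound concentrations were applied to cells in 96-well plates for 48 hours; endpoints were derived by simple linear interpolation of the resulting dose-response curve. TGI denotes the concentration required for complete inhibition of growth.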

Tests used:
Assay in all cases: NCI anticancer screen, dose series, 48 h
COLO 205 colon = test system: COLO 205 colon
786-0 renal = test system: 786-0 renal
SK-MEL-28 melanoma = test system: SK-MEL-28 melanoma
A498 renal = test system: A498 renal
NCI/ADR-RES ovarian = test system: NCI/ADR-RES ovarian
MCF7 breast = test system: MCF7 breast
OVCAR-3 ovarian = test system: OVCAR-3 ovarian
SN12C renal = test system: SN12C renal
NCI-H23 lung = test system: NCI-H23 lung
MDA-MB-435 = test system: MDA-MB-435
HT29 colon = test system: HT29 colon
UACC-257 melanoma = test system: UACC-257 melanoma
SW-620 colon = test system: SW-620 colon
MOLT-4 leukemia = test system: MOLT-4 leukemia
HOP-92 NSCLC = test system: HOP-92 NSCLC
TK-10 renal = test system: TK-10 renal
HCT-15 colon = test system: HCT-15 colon
OVCAR-5 ovarian = test system: OVCAR-5 ovarian
EKVX NSCLC = test system: EKVX NSCLC
OVCAR-8 ovarian = test system: OVCAR-8 ovarian
MALME-3M melanoma = test system: MALME-3M melanoma
NCI-H226 lung = test system: NCI-H226 lung
UO-31 renal = test system: UO-31 renal
SNB-19 CNS = test system: SNB-19 CNS
HOP-62 NSCLC = test system: HOP-62 NSCLC
OVCAR-4 ovarian = test system: OVCAR-4 ovarian
MDA-N = test system: MDA-N
K-562 leukemia = test system: K-562 leukemia
SK-MEL-2 melanoma = test system: SK-MEL-2 melanoma
BT-549 breast = test system: BT-549 breast
ACHN renal = test system: ACHN renal
A549 NSCLC = test system: A549 NSCLC
CCRF-CEM leukemia = test system: CCRF-CEM leukemia
SK-OV-3 ovarian = test system: SK-OV-3 ovarian
KM12 colon = test system: KM12 colon
PC-3 prostate = test system: PC-3 prostate
HL-60(TB) leukemia = test system: HL-60(TB) leukemia
SK-MEL-5 melanoma = test system: SK-MEL-5 melanoma
HCT-116 colon = test system: HCT-116 colon
IGROV1 ovarian = test system: IGROV1 ovarian
M14 melanoma = test system: M14 melanoma
HS 578T breast = test system: HS 578T breast
DU-145 prostate = test system: DU-145 prostate
NCI-H460 lung = test system: NCI-H460 lung
NCI-H522 lung = test system: NCI-H522 lung
CAKI-1 renal = test system: CAKI-1 renal
UACC-62 melanoma = test system: UACC-62 melanoma
U251 CNS = test system: U251 CNS
SF-268 CNS = test system: SF-268 CNS
SF-295 CNS = test system: SF-295 CNS
LOX IMVI melanoma = test system: LOX IMVI melanoma
RXF 393 renal = test system: RXF 393 renal
SR leukemia = test system: SR leukemia
RPMI-8226 leukemia = test system: RPMI-8226 leukemia
MDA-MB-231 breast = test system: MDA-MB-231 breast
HCC-2998 colon = test system: HCC-2998 colon
SF-539 CNS = test system: SF-539 CNS
SNB-75 CNS = test system: SNB-75 CNS

For Cc1cc(C)c(S(=O)(=O)N2CCN(S(=O)(=O)c3c(C)cc(C)cc3C)OCCCCCO2)c(C)c1, the TGI (COLO 205 colon) was > 100 µM, the TGI (786-0 renal) was > 100 µM and the TGI (SK-MEL-28 melanoma) was > 100 µM. The TGI (A498 renal) was > 100 µM, the TGI (NCI/ADR-RES ovarian) was > 100 µM and the TGI (MCF7 breast) was > 100 µM. The TGI (OVCAR-3 ovarian) was > 100 µM, the TGI (SN12C renal) was > 100 µM and the TGI (NCI-H23 lung) was > 100 µM. The TGI (MDA-MB-435) was > 100 µM, the TGI (HT29 colon) was > 100 µM and the TGI (UACC-257 melanoma) was > 100 µM. The TGI (SW-620 colon) was > 100 µM, the TGI (MOLT-4 leukemia) was > 100 µM and the TGI (HOP-92 NSCLC) was > 100 µM. For the same compound, the TGI (TK-10 renal) was > 100 µM, the TGI (HCT-15 colon) was > 100 µM and the TGI (OVCAR-5 ovarian) was > 100 µM. For the same compound, the TGI (EKVX NSCLC) was > 100 µM, the TGI (OVCAR-8 ovarian) was > 100 µM and the TGI (MALME-3M melanoma) was > 100 µM. The TGI (NCI-H226 lung) was > 100 µM, the TGI (UO-31 renal) was > 100 µM and the TGI (SNB-19 CNS) was > 100 µM. For the same compound, the TGI (HOP-62 NSCLC) was > 100 µM, the TGI (OVCAR-4 ovarian) was > 100 µM and the TGI (MDA-N) was > 100 µM. The TGI (K-562 leukemia) was > 100 µM, the TGI (SK-MEL-2 melanoma) was > 100 µM and the TGI (BT-549 breast) was > 100 µM. For the same compound, the TGI (ACHN renal) was > 100 µM, the TGI (A549 NSCLC) was > 100 µM and the TGI (CCRF-CEM leukemia) was > 100 µM. The TGI (SK-OV-3 ovarian) was > 100 µM, the TGI (KM12 colon) was > 100 µM and the TGI (PC-3 prostate) was > 100 µM. For the same compound, the TGI (HL-60(TB) leukemia) was > 100 µM, the TGI (SK-MEL-5 melanoma) was > 100 µM and the TGI (HCT-116 colon) was > 100 µM. The TGI (IGROV1 ovarian) was > 100 µM, the TGI (M14 melanoma) was > 100 µM and the TGI (HS 578T breast) was > 100 µM. The TGI (DU-145 prostate) was > 100 µM, the TGI (NCI-H460 lung) was > 100 µM and the TGI (NCI-H522 lung) was > 100 µM. The TGI (CAKI-1 renal) was > 100 µM, the TGI (UACC-62 melanoma) was > 100 µM and the TGI (U251 CNS) was > 100 µM. The TGI (SF-268 CNS) was > 100 µM, the TGI (SF-295 CNS) was > 100 µM and the TGI (LOX IMVI melanoma) was > 100 µM.

In the case of CC12OC1(C)C1C(=O)OCC1C2=O (stereo not given), the TGI (COLO 205 colon) was > 100 µM, the TGI (786-0 renal) was > 100 µM and the TGI (SK-MEL-28 melanoma) was > 100 µM. For the same compound, the TGI (A498 renal) was > 100 µM, the TGI (NCI/ADR-RES ovarian) was > 100 µM and the TGI (MCF7 breast) was > 100 µM. The TGI (OVCAR-3 ovarian) was > 100 µM, the TGI (SN12C renal) was 55.4 µM and the TGI (NCI-H23 lung) was > 100 µM. For the same compound, the TGI (MDA-MB-435) was > 100 µM, the TGI (HT29 colon) was > 100 µM and the TGI (UACC-257 melanoma) was > 100 µM. The TGI (SW-620 colon) was > 100 µM, the TGI (HOP-92 NSCLC) was > 100 µM and the TGI (TK-10 renal) was > 100 µM. The TGI (HCT-15 colon) was > 100 µM, the TGI (OVCAR-5 ovarian) was > 100 µM and the TGI (OVCAR-8 ovarian) was > 100 µM. For the same compound, the TGI (MALME-3M melanoma) was 69.7 µM, the TGI (NCI-H226 lung) was > 100 µM and the TGI (RXF 393 renal) was 84.6 µM. For the same compound, the TGI (UO-31 renal) was > 100 µM, the TGI (SNB-19 CNS) was > 100 µM and the TGI (HOP-62 NSCLC) was > 100 µM. The TGI (OVCAR-4 ovarian) was > 100 µM, the TGI (MDA-N) was > 100 µM and the TGI (K-562 leukemia) was 72.4 µM. For the same compound, the TGI (SR leukemia) was 69.2 µM, the TGI (SK-MEL-2 melanoma) was > 100 µM and the TGI (BT-549 breast) was > 100 µM. The TGI (ACHN renal) was > 100 µM, the TGI (RPMI-8226 leukemia) was > 100 µM and the TGI (A549 NSCLC) was > 100 µM. The TGI (CCRF-CEM leukemia) was 36 µM, the TGI (SK-OV-3 ovarian) was > 100 µM and the TGI (KM12 colon) was > 100 µM. For the same compound, the TGI (MDA-MB-231 breast) was > 100 µM, the TGI (PC-3 prostate) was > 100 µM and the TGI (HL-60(TB) leukemia) was 54.3 µM. The TGI (SK-MEL-5 melanoma) was > 100 µM, the TGI (HCT-116 colon) was > 100 µM and the TGI (IGROV1 ovarian) was > 100 µM. For the same compound, the TGI (M14 melanoma) was > 100 µM, the TGI (HS 578T breast) was 94.1 µM and the TGI (DU-145 prostate) was > 100 µM. For the same compound, the TGI (NCI-H460 lung) was > 100 µM, the TGI (HCC-2998 colon) was > 100 µM and the TGI (NCI-H522 lung) was 27.9 µM. For the same compound, the TGI (CAKI-1 renal) was 71.5 µM, the TGI (SF-539 CNS) was > 100 µM and the TGI (UACC-62 melanoma) was > 100 µM. The TGI (U251 CNS) was > 100 µM, the TGI (SNB-75 CNS) was > 100 µM and the TGI (SF-268 CNS) was > 100 µM. For the same compound, the TGI (SF-295 CNS) was > 100 µM and the TGI (LOX IMVI melanoma) was > 100 µM.

With COc1nc(N)c(C#N)c(C#N)c1C#N the TGI (COLO 205 colon) was > 10 µM, the TGI (786-0 renal) was > 10 µM and the TGI (SK-MEL-28 melanoma) was > 10 µM. The TGI (NCI/ADR-RES ovarian) was > 10 µM, the TGI (MCF7 breast) was > 10 µM and the TGI (OVCAR-3 ovarian) was > 10 µM. For the same compound, the TGI (SN12C renal) was > 10 µM, the TGI (NCI-H23 lung) was > 10 µM and the TGI (MDA-MB-435) was > 10 µM. The TGI (HT29 colon) was > 10 µM, the TGI (UACC-257 melanoma) was > 10 µM and the TGI (SW-620 colon) was > 10 µM. For the same compound, the TGI (MOLT-4 leukemia) was > 10 µM, the TGI (HOP-92 NSCLC) was > 10 µM and the TGI (TK-10 renal) was > 10 µM. The TGI (HCT-15 colon) was > 10 µM, the TGI (OVCAR-5 ovarian) was > 10 µM and the TGI (OVCAR-8 ovarian) was > 10 µM. The TGI (MALME-3M melanoma) was > 10 µM, the TGI (SNB-19 CNS) was > 10 µM and the TGI (HOP-62 NSCLC) was > 10 µM. The TGI (OVCAR-4 ovarian) was > 10 µM, the TGI (MDA-N) was > 10 µM and the TGI (K-562 leukemia) was > 10 µM. The TGI (SR leukemia) was > 10 µM, the TGI (BT-549 breast) was > 10 µM and the TGI (ACHN renal) was > 10 µM. The TGI (RPMI-8226 leukemia) was > 10 µM, the TGI (A549 NSCLC) was > 10 µM and the TGI (SK-OV-3 ovarian) was > 10 µM. The TGI (KM12 colon) was > 10 µM, the TGI (MDA-MB-231 breast) was > 10 µM and the TGI (PC-3 prostate) was > 10 µM. The TGI (HL-60(TB) leukemia) was > 10 µM, the TGI (SK-MEL-5 melanoma) was > 10 µM and the TGI (HCT-116 colon) was > 10 µM. The TGI (M14 melanoma) was > 10 µM, the TGI (HS 578T breast) was > 10 µM and the TGI (DU-145 prostate) was > 10 µM. The TGI (HCC-2998 colon) was > 10 µM, the TGI (NCI-H522 lung) was > 10 µM and the TGI (CAKI-1 renal) was > 10 µM. The TGI (SF-539 CNS) was > 10 µM, the TGI (U251 CNS) was > 10 µM and the TGI (SNB-75 CNS) was > 10 µM. The TGI (SF-268 CNS) was > 10 µM, the TGI (SF-295 CNS) was > 10 µM and the TGI (LOX IMVI melanoma) was > 10 µM.
